The record followed here is the supplement of paper PMC10307832.

Common to all, as to experiment: relative viability (nuclei count vs DMSO), 5 days (fraction); higher = more cells survive
Compound in the test “Carboplatin + Tozasertib”: C1CC(C1)(C(=O)O)C(=O)O.[NH2-].[NH2-].[Pt+2] [Carboplatin] + Cc1cc(Nc2cc(N3CCN(C)CC3)nc(Sc3ccc(NC(=O)C4CC4)cc3)n2)n[nH]1 [Tozasertib] (partner 0.1 µM)
The essentials:
(§1)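 For relative viability, nuclei counts in treated wells were divided by those in vehicle wells. Lung cancer cell lines had been pin-tool dosed in 1536-well plates the day after seeding and cultured for 5 days, then fixed and stained in one step (final 0.05% Triton X-100, 1% formaldehyde, 1 ug/ml Hoechst) and imaged at 4×. Doses were one drug alone or a fixed anchor-drug dose plus five library-drug doses (not always all listed) in √10 steps, and values are duplicate-plate medians.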

Compound in the test “MLN4924 + Phenformin”: NS(=O)(=O)OC[C@@H]1C[C@@H](n2ccc3c(N[C@H]4CCc5ccccc54)ncnc32)C[C@@H]1O [MLN4924] + N=C(N)NC(=N)NCCc1ccccc1 [Phenformin] (partner 250 µM)
An outline of the steps: as §1

Compound in the test “GSK126 + Linsitinib”: CC[C@H](C)N1C=C(C2=C(C=C(C=C21)C3=CN=C(C=C3)N4CCNCC4)C(=O)NCC5=C(C=C(NC5=O)C)C)C [GSK126] + C[C@]1(O)C[C@@H](c2nc(-c3ccc4ccc(-c5ccccc5)nc4c3)c3c(N)nccn32)C1 [Linsitinib] (partner 1 µM)
An outline of the steps: as §1

Compound in the test “Carboplatin + Vorinostat”: C1CC(C1)(C(=O)O)C(=O)O.[NH2-].[NH2-].[Pt+2] [Carboplatin] + O=C(CCCCCCC(=O)Nc1ccccc1)NO [Vorinostat] (partner 1 µM)
The essentials:
as §1

For 201T, the relative viability is 0.988 with Carboplatin + Tozasertib (first compound 0.08 µM); 0.933 in the test with Carboplatin + Tozasertib (first compound 0.253 µM); 0.985 with Carboplatin + Tozasertib (first compound 0.8 µM); 0.942 with Carboplatin + Tozasertib (first compound 2.53 µM); 0.89 with Carboplatin + Tozasertib (first compound 8 µM); 0.553 in the test with MLN4924 + Phenformin (first compound 0.04 µM). Besides, the relative viability with MLN4924 + Phenformin (first compound 0.1265 µM) stood at 0.555; in the test with MLN4924 + Phenformin (first compound 0.4 µM), 0.43; with MLN4924 + Phenformin (first compound 1.265 µM), 0.278; in the test with MLN4924 + Phenformin (first compound 4 µM) it was 0.327; with GSK126 + Linsitinib (first compound 0.08 µM), 1.04; with GSK126 + Linsitinib (first compound 0.253 µM), 1.11. Further, the relative viability is 1.06 with GSK126 + Linsitinib (first compound 0.8 µM); 1.07 with GSK126 + Linsitinib (first compound 2.53 µM); 1.18 with GSK126 + Linsitinib (first compound 8 µM); 1.06 with Carboplatin + Vorinostat (first compound 0.08 µM); 0.948 with Carboplatin + Vorinostat (first compound 0.253 µM); 0.995 in the test with Carboplatin + Vorinostat (first compound 0.8 µM). Moreover, the relative viability in the test with Carboplatin + Vorinostat (first compound 2.53 µM) turned out to be 0.962; in the test with Carboplatin + Vorinostat (first compound 8 µM), 0.926.
Take A549: the relative viability in the test with MLN4924 + Phenformin (first compound 0.04 µM) worked out at 0.0967; with MLN4924 + Phenformin (first compound 0.1265 µM), 0.154; with MLN4924 + Phenformin (first compound 0.4 µM) it was 0.0425; in the test with MLN4924 + Phenformin (first compound 1.265 µM), 0.0445; with MLN4924 + Phenformin (first compound 4 µM), 0.0437; with GSK126 + Linsitinib (first compound 0.08 µM), 0.687. The relative viability in the test with GSK126 + Linsitinib (first compound 0.253 µM) came to 0.524; in the test with GSK126 + Linsitinib (first compound 0.8 µM) it was 0.541; in the test with GSK126 + Linsitinib (first compound 2.53 µM) it was 0.594; with GSK126 + Linsitinib (first compound 8 µM) it was 0.58.
For A-427, the relative viability was determined as 0.188 with Carboplatin + Tozasertib (first compound 0.08 µM); 0.237 with Carboplatin + Tozasertib (first compound 0.253 µM); 0.238 with Carboplatin + Tozasertib (first compound 0.8 µM); 0.219 with Carboplatin + Tozasertib (first compound 2.53 µM); 0.221 with Carboplatin + Tozasertib (first compound 8 µM); 0.193 with MLN4924 + Phenformin (first compound 0.04 µM). In addition, the relative viability with MLN4924 + Phenformin (first compound 0.1265 µM) was found to be 0.165; in the test with MLN4924 + Phenformin (first compound 0.4 µM), 0.171; with MLN4924 + Phenformin (first compound 1.265 µM) it was 0.146; in the test with MLN4924 + Phenformin (first compound 4 µM), 0.151; with GSK126 + Linsitinib (first compound 0.08 µM), 1.19; with GSK126 + Linsitinib (first compound 0.253 µM), 1.19. Moreover, the relative viability with GSK126 + Linsitinib (first compound 0.8 µM) stood at 1.09; in the test with GSK126 + Linsitinib (first compound 2.53 µM), 1.17; with GSK126 + Linsitinib (first compound 8 µM) it was 1.11; with Carboplatin + Vorinostat (first compound 0.08 µM) it was 0.865; with Carboplatin + Vorinostat (first compound 0.253 µM) it was 0.854; with Carboplatin + Vorinostat (first compound 0.8 µM), 0.864. Besides, the values for the relative viability with Carboplatin + Vorinostat (first compound 2.53 µM) and with Carboplatin + Vorinostat (first compound 8 µM) were 0.864 and 0.829, respectively.
For ABC-1, the relative viability with Carboplatin + Tozasertib (first compound 0.08 µM) stood at 0.208; in the test with Carboplatin + Tozasertib (first compound 0.253 µM), 0.201; with Carboplatin + Tozasertib (first compound 0.8 µM) it was 0.164; in the test with Carboplatin + Tozasertib (first compound 2.53 µM), 0.186; with Carboplatin + Tozasertib (first compound 8 µM), 0.207; with MLN4924 + Phenformin (first compound 0.04 µM), 0.274. The relative viability was 0.298 with MLN4924 + Phenformin (first compound 0.1265 µM); 0.229 in the test with MLN4924 + Phenformin (first compound 0.4 µM); 0.212 with MLN4924 + Phenformin (first compound 1.265 µM); 0.222 with MLN4924 + Phenformin (first compound 4 µM); 0.83 in the test with GSK126 + Linsitinib (first compound 0.08 µM); 1.03 in the test with GSK126 + Linsitinib (first compound 0.253 µM). For the same cell line, the relative viability stood at 0.67 with GSK126 + Linsitinib (first compound 0.8 µM); 0.703 with GSK126 + Linsitinib (first compound 2.53 µM); 0.755 with GSK126 + Linsitinib (first compound 8 µM); 1.53 with Carboplatin + Vorinostat (first compound 0.08 µM); 1.33 with Carboplatin + Vorinostat (first compound 0.253 µM); 0.834 with Carboplatin + Vorinostat (first compound 0.8 µM). Further, the results for the relative viability with Carboplatin + Vorinostat (first compound 2.53 µM) and with Carboplatin + Vorinostat (first compound 8 µM) were 1.18 and 0.407, respectively.
In the case of BEN, the relative viability with Carboplatin + Tozasertib (first compound 0.08 µM) is 0.588; with Carboplatin + Tozasertib (first compound 0.253 µM), 0.633; with Carboplatin + Tozasertib (first compound 0.8 µM), 0.469; with Carboplatin + Tozasertib (first compound 2.53 µM) it was 0.486; with Carboplatin + Tozasertib (first compound 8 µM) it was 0.433; in the test with MLN4924 + Phenformin (first compound 0.04 µM) it was 0.214. Also, the relative viability in the test with MLN4924 + Phenformin (first compound 0.1265 µM) worked out at 0.185; in the test with MLN4924 + Phenformin (first compound 0.4 µM), 0.218; with MLN4924 + Phenformin (first compound 1.265 µM), 0.183; in the test with MLN4924 + Phenformin (first compound 4 µM) it was 0.145; with GSK126 + Linsitinib (first compound 0.08 µM), 1.19; in the test with GSK126 + Linsitinib (first compound 0.253 µM) it was 0.953. Moreover, the relative viability in the test with GSK126 + Linsitinib (first compound 0.8 µM) is 0.813; with GSK126 + Linsitinib (first compound 2.53 µM), 0.893; with GSK126 + Linsitinib (first compound 8 µM) it was 0.653; with Carboplatin + Vorinostat (first compound 0.08 µM), 0.658; in the test with Carboplatin + Vorinostat (first compound 0.253 µM), 0.611; with Carboplatin + Vorinostat (first compound 0.8 µM) it was 0.598. Further, the results for the relative viability with Carboplatin + Vorinostat (first compound 2.53 µM) and with Carboplatin + Vorinostat (first compound 8 µM) were 0.625 and 0.581, respectively.
In the case of CAL-12T, the relative viability with Carboplatin + Tozasertib (first compound 0.08 µM) worked out at 0.338; with Carboplatin + Tozasertib (first compound 0.253 µM), 0.289; in the test with Carboplatin + Tozasertib (first compound 0.8 µM), 0.329; in the test with Carboplatin + Tozasertib (first compound 2.53 µM) it was 0.413; in the test with Carboplatin + Tozasertib (first compound 8 µM) it was 0.382; with MLN4924 + Phenformin (first compound 0.04 µM), 0.511. Further, the relative viability with MLN4924 + Phenformin (first compound 0.1265 µM) worked out at 0.511; with MLN4924 + Phenformin (first compound 0.4 µM), 0.292; with MLN4924 + Phenformin (first compound 1.265 µM) it was 0.214; with MLN4924 + Phenformin (first compound 4 µM), 0.129; with GSK126 + Linsitinib (first compound 0.08 µM) it was 0.964; with GSK126 + Linsitinib (first compound 0.253 µM), 0.94. Besides, the relative viability with GSK126 + Linsitinib (first compound 0.8 µM) turned out to be 0.78; with GSK126 + Linsitinib (first compound 2.53 µM), 0.918; with GSK126 + Linsitinib (first compound 8 µM), 0.868; in the test with Carboplatin + Vorinostat (first compound 0.08 µM), 0.606; in the test with Carboplatin + Vorinostat (first compound 0.253 µM), 0.768; with Carboplatin + Vorinostat (first compound 0.8 µM), 0.733. Moreover, the figures for the relative viability in the test with Carboplatin + Vorinostat (first compound 2.53 µM) and with Carboplatin + Vorinostat (first compound 8 µM) were 0.802 and 0.891, respectively.
In the case of COR-L23, the relative viability in the test with Carboplatin + Tozasertib (first compound 0.08 µM) is 0.237; with Carboplatin + Tozasertib (first compound 0.253 µM), 0.217; with Carboplatin + Tozasertib (first compound 0.8 µM) it was 0.186; with Carboplatin + Tozasertib (first compound 2.53 µM) it was 0.144; with Carboplatin + Tozasertib (first compound 8 µM) it was 0.148; in the test with MLN4924 + Phenformin (first compound 0.04 µM), 0.42. Besides, the relative viability was 0.332 with MLN4924 + Phenformin (first compound 0.1265 µM); 0.326 in the test with MLN4924 + Phenformin (first compound 0.4 µM); 0.133 with MLN4924 + Phenformin (first compound 1.265 µM); 0.0871 in the test with MLN4924 + Phenformin (first compound 4 µM); 1.06 in the test with GSK126 + Linsitinib (first compound 0.08 µM); 1.12 in the test with GSK126 + Linsitinib (first compound 0.253 µM). The relative viability in the test with GSK126 + Linsitinib (first compound 0.8 µM) was 0.918; with GSK126 + Linsitinib (first compound 2.53 µM), 0.912; with GSK126 + Linsitinib (first compound 8 µM) it was 0.99; in the test with Carboplatin + Vorinostat (first compound 0.08 µM), 0.588; in the test with Carboplatin + Vorinostat (first compound 0.253 µM), 0.446; with Carboplatin + Vorinostat (first compound 0.8 µM), 0.36. Moreover, the relative viability with Carboplatin + Vorinostat (first compound 2.53 µM) was determined as 0.262; with Carboplatin + Vorinostat (first compound 8 µM) it was 0.149.
